The results in this text go back to US20260184692A1, “HETEROCYCLIC COMPOUNDS, PREPARATION METHODS AND USES THEREOF” (InventisBio Co., Ltd., priority 2022, published 2026).

Where only a bound is given, the exact number is not on record here.

For this assay, the system named is OVCAR3 Cells. The assay can be described thus: OVCAR3 Cell Viability Assay (CellTiter-Glo). In kind it is cell-based. To be noted: Homo sapiens, OVCAR-3, 144 h, 6 days incubation, read-out: OVCAR3 CTG IC50. Here is the method: OVCAR3 Cells (ATCC, Cat #HTB-161) were seeded at a density of 2000 cells/well in a 96-well clear bottom plate (Greiner, Cat #655098) in 100 μL of complete media (RPMI1640+20% FBS+0.01 mg/mL human insulin). One hundred microliter of complete media was added into the blank well (column 1) for low control. Cells were allowed to adhere to the plate overnight in the incubator at 37° C., 5% CO2. On the following day, 0.5 μL of serially-diluted compounds were added to the cells (columns 2-10) and incubated for 6 days at 37 C, 5% CO2 (final 0.5% DMSO concentration); 0.5 μL of DMSO solution was added into the wells (column 11) for high control. Cell viability was detected according to the CellTiter-Glo Luminescent Cell Viability Assay Kit (Promega, Cat #G7573). Luminescence was recorded on the Tecan Spark plate reader. Inhibition rate (IR) of the tested compounds was determined by the following formula: IR (%)=(1−(RLUcompound−RLUlow control)/(RLUhigh control−RLUlow control))×100%. The IC50 value was calculated using the non-linear regression equation: Y=Bottom+(Top−Bottom)/(1+10^((Log IC50−X)×HillSlope)), where X is Log of compound concentration, Y is percent inhibition (IR (%)), Top and Bottom are plateaus in same units as Y.
A general note: Cellular ATP, detected with luciferase, serves as a proxy for viable cell number.
In the case of `CN1CCN(c2ccc(N3CC4(CCC5(CC5)CC4)c4cc(NS(=O)(=O)CCO)ccc4C3=O)nc2N2CCC(F)(F)CC2)C(=O)C1` [Compound 178], the half-maximal inhibitory concentration (IC50) (usually the concentration needed to halve the response being measured) is less than 200 nM. Next, `O=C1c2ccc(NS(=O)(=O)CCO)cc2C2(CCC3(CC3)CC2)CN1c1cccc(CN2CC(F)(F)C2)n1` [Compound 18]: less than 200 nM; `Cc1ncc(N2CC3(CCC4(CC4)CC3)c3cc(NS(=O)(=O)CCO)ccc3C2=O)nc1N1CCC(F)(F)CC1` [Compound 73]: less than 200 nM. For `CCNC(=O)c1ccc(N2CC3(CCC4(CC4)CC3)c3cc(NS(=O)(=O)CCO)ccc3C2=O)nc1N1CCC(F)(F)CC1` [Compound 144] the value was less than 200 nM; for `Cc1cc(NC(=O)c2ccc(NS(=O)(=O)CCO)cc2N2C[C@H]3CCC[C@H]3C2)nc(N2CCC(F)(F)CC2)n1` [Compound 8], less than 200 nM.

Take `O=C1c2ccc(NS(=O)(=O)CCO)cc2C2(CCC3(CC3)CC2)CN1c1ccc(O)c(N2CCC(F)(F)CC2)n1` [Compound 137]: the IC50 is less than 200 nM. For `CN1CCN(c2nc(N3CC4(CCC5(CC5)CC4)c4cc(NS(=O)(=O)CCO)ccc4C3=O)ccc2F)CC1` [Compound 46] the value was 200 to 2000 nM; for `N#Cc1ccc(N2CC3(CCC(F)(F)CC3)c3cc(NS(=O)(=O)CCO)c(F)cc3C2=O)nc1N1CCC(F)(F)CC1` [Compound 126], less than 200 nM; for `NC(=O)c1ncc(N2CC3(CCC4(CC4)CC3)c3cc(NS(=O)(=O)CCO)ccc3C2=O)nc1N1CCC(F)(F)CC1` [Compound 165], less than 200 nM. As for `CN1CC=C(c2ccc(N3CC4(CCC5(CC5)CC4)c4cc(NS(=O)(=O)CCO)ccc4C3=O)nc2N2CCC(F)(F)CC2)CC1` [Compound 176], the IC50 lay in the range of 200 to 2000 nM. For `CC1(F)CCC2(CC1)CN(c1ccnc(N3CCC(F)(F)CC3)n1)C(=O)c1ccc(NS(=O)(=O)CCO)cc12` (stereo not drawn) [Compound 103] the value was 200 to 2000 nM. In the case of `O=C1c2ccc(NS(=O)(=O)CCO)cc2C2(CCC(F)(F)CC2)CN1c1ccnc(NC2CC(F)(F)C2)n1` [Compound 97], the IC50 is 200 to 2000 nM. Take `O=C1c2ccc(NS(=O)(=O)CCO)cc2C2(CCC3(CC3)CC2)CN1c1ccc(C2CC2)c(N2CCC(F)(F)CC2)n1` [Compound 151]: the concentration for half-maximal inhibition (IC50) is less than 200 nM.

For `O=C1c2ccc(NS(=O)(=O)CCO)cc2C2(CCC3(CC3)CC2)CN1c1ccnc(NCCC(F)(F)F)n1` [Compound 84], the IC50 is less than 200 nM. With `CC1(C)CCC2(CC1)CN(c1ccnc(NC3CC(F)(F)C3)n1)C(=O)c1ccc(NS(=O)(=O)CCO)cc12` [Compound 74], the concentration for half-maximal inhibition (IC50) is less than 200 nM. Consider `O=C1c2ccc(NS(=O)(=O)CCO)nc2C2(CCC3(CC3)CC2)CN1c1ccnc(N2CCC(F)(F)CC2)n1` [Compound 68], for which the IC50 is greater than 2000 nM. On to `COCCS(=O)(=O)Nc1ccc2c(c1)C1(CCC3(CC3)CC1)CN(c1ccnc(NC3CC(F)(F)C3)n1)C2=O` [Compound 148], for which the 50% inhibitory concentration (IC50) lay in the range of 200 to 2000 nM. Regarding `O=C1c2ccc(NS(=O)(=O)CCO)cc2C2(CCC3(CC3)CC2)CN1c1cccc(CN2CCC(F)(F)C2)n1` [Compound 19], the IC50 is less than 200 nM. Next, `O=C1c2ncc(NS(=O)(=O)CCO)cc2C2(CCC3(CC3)CC2)CN1c1ccnc(N2CCC(F)(F)CC2)n1` [Compound 64]: 200 to 2000 nM. For `O=C1c2ccc(NS(=O)(=O)CCO)cc2C2(CCC3(CC3)CC2)CN1c1ccc2ncn(CC(F)(F)F)c2n1` [Compound 60], the IC50 fell in the range of 200 to 2000 nM. Next, `COc1ccc(N2CC3(CCC4(CC4)CC3)c3cc(NS(=O)(=O)CCOC(=O)[C@@H](N)C(C)C)ccc3C2=O)nc1N1CCC(F)(F)CC1` [Compound 134]: less than 200 nM; `Cn1cnc(-c2ccc(N3CC4(CCC5(CC5)CC4)c4cc(NS(=O)(=O)CCO)ccc4C3=O)nc2NC2CC(F)(F)C2)c1` [Compound 169]: less than 200 nM.

In the case of `O=C1c2ccc(NS(=O)(=O)CCO)cc2C2(CCC(F)(F)CC2)CN1c1ccnc(N2CCC(F)(F)CC2)n1` [Compound 67], the IC50 was in the range of 200 to 2000 nM. Take `CC1(F)CCN(c2nc(N3CC4(CCC5(CC5)CC4)c4cc(NS(=O)(=O)CCO)ccc4C3=O)ccc2F)CC1` [Compound 40]: the half-inhibitory concentration (IC50) was less than 200 nM. Next, `CCNC(=O)c1ccc(N2CC3(CCC4(CC4)CC3)c3cc(NS(=O)(=O)CCO)ccc3C2=O)nc1NC1CC(F)(F)C1` [Compound 162]: less than 200 nM; `O=C1c2cc(F)c(NS(=O)(=O)CCO)cc2C2(CCC3(CC3)CC2)CN1c1ccnc(N2CCC(F)(F)CC2)n1` [Compound 41]: 200 to 2000 nM; `O=C1c2cc(F)c(NS(=O)(=O)CCO)cc2C2(CCC3(CC3)CC2)CN1c1ccnc(NC2CC(F)(F)C2)n1` [Compound 65]: 200 to 2000 nM. Next, `CC(C)[C@H](N)C(=O)OCCS(=O)(=O)Nc1ccc2c(c1)C1(CCC3(CC3)CC1)CN(c1ccc(C#N)c(N3CCC(F)(F)CC3)n1)C2=O` [Compound 132]: less than 200 nM; `Cc1cc(N2CC3(CCC4(CC4)CC3)c3cc(NS(=O)(=O)CCO)ccc3C2=O)nc(N2CCC(F)(F)CC2)n1` [Compound 35]: 200 to 2000 nM; `N#Cc1ccc(N2CC3(CCC4(CC4)CC3)c3cc(NS(=O)(=O)CCO)cnc3C2=O)nc1N1CCC(F)(F)CC1` [Compound 59]: 200 to 2000 nM. Next, `O=C1c2ccc(NS(=O)(=O)CCO)cc2C2(CCC3(CC3)CC2)CN1c1ccnc(N2CC(F)(F)C2)n1` [Compound 33]: 200 to 2000 nM.

Regarding `O=C1c2ccc(NS(=O)(=O)CCO)cc2C2(CCC3(CC3)CC2)CN1c1cccc(NC2CC(F)(F)C2)n1` [Compound 48], the IC50 is less than 200 nM.

In the case of `O=C1c2ccc(NS(=O)(=O)CCO)cc2C2(CCC3(CC3)CC2)CN1c1ccc(F)c(N2CCCC(F)(F)CC2)n1` [Compound 47], the IC50 is less than 200 nM. For `Cn1cnc(-c2ccc(N3CC4(CCC5(CC5)CC4)c4cc(NS(=O)(=O)CCO)ccc4C3=O)nc2N2CCC(F)(F)CC2)n1` [Compound 175] the value was less than 200 nM. Consider `CC(C)[C@H](N)C(=O)OCCS(=O)(=O)Nc1ccc2c(c1)C1(CCC3(CC3)CC1)CN(c1ccnc(NC3CC(F)(F)C3)n1)C2=O` [Compound 135], for which the IC50 is less than 200 nM. Next, `Cn1cc(-c2ccc(N3CC4(CCC5(CC5)CC4)c4cc(NS(=O)(=O)CCO)ccc4C3=O)nc2NC2CC(F)(F)C2)cn1` [Compound 163]: less than 200 nM; `CN(c1nccc(N2CC3(CCC4(CC4)CC3)c3cc(NS(=O)(=O)CCO)ccc3C2=O)n1)C1CCC(F)(F)C1` (stereo not drawn) [Compound 50]: 200 to 2000 nM; `O=C1c2ccc(NS(=O)(=O)CC(F)(F)F)cc2C2(CCC3(CC3)CC2)CN1c1ccnc(NC2CC(F)(F)C2)n1` [Compound 166]: greater than 2000 nM.

In the case of `O=C1c2ccc(NS(=O)(=O)CCO)cc2C2(CCC3(CC3)CC2)CN1c1ccnc(N2CC3CCC2C3)n1` (stereo not drawn) [Compound 82], the IC50 fell in the range of 200 to 2000 nM.

Take `CC1(F)CCC2(CC1)CN(c1ccc(C#N)c(NC3CC(F)(F)C3)n1)C(=O)c1ccc(NS(=O)(=O)CCO)cc12` (stereo not drawn) [Compound 111]: the concentration for half-maximal inhibition (IC50) was in the range of 200 to 2000 nM. Regarding `O=C1c2ccc(NS(=O)(=O)CCO)cc2C2(CCC3(CC3)CC2)CN1c1ccc(F)c(OC2CC(F)(F)C2)n1` [Compound 61], the IC50 was 200 to 2000 nM.

As to `N#Cc1ccc(N2CC3(CCC4(CC4)CC3)c3cc(NS(=O)(=O)CC(F)(F)F)ccc3C2=O)nc1N1CCC(F)(F)CC1` [Compound 158], the IC50 was less than 200 nM. Next, `O=C1c2ccc(NS(=O)(=O)CCO)cc2C2(CCC3(CC3)CC2)CN1c1cccc(OC2CC(F)(F)C2)n1` [Compound 24]: 200 to 2000 nM; `CC1(F)CCC2(CC1)CN(c1ccnc(NC3CC(F)(F)C3)n1)C(=O)c1ccc(NS(=O)(=O)CCO)cc12` (stereo not drawn) [Compound 112]: 200 to 2000 nM; `N#Cc1ccc(N2CC3(CCC4(CCC4)CC3)c3cc(NS(=O)(=O)CCO)ccc3C2=O)nc1NC1CC(F)(F)C1` [Compound 115]: less than 200 nM. For `COc1ncc(N2CC3(CCC4(CC4)CC3)c3cc(NS(=O)(=O)CCO)ccc3C2=O)nc1N1CCC(F)(F)CC1` [Compound 146] the value was less than 200 nM; for `CC(c1cccc(N2CC3(CCC4(CC4)CC3)c3cc(NS(=O)(=O)CCO)ccc3C2=O)n1)N1CCC(F)(F)C1` (stereo not drawn) [Compound 30], 200 to 2000 nM; for `N#Cc1ccc(N2CC3(CCC4(CC4)CC3)c3nc(NS(=O)(=O)CCO)ccc3C2=O)nc1N1CCC(F)(F)CC1` [Compound 70], 200 to 2000 nM. For `COc1ccc(N2CC3(CCC4(CC4)CC3)c3cc(NS(=O)(=O)CCN(C)C)ccc3C2=O)nc1N1CCC(F)(F)CC1` [Compound 153] the value was 200 to 2000 nM. As for `O=C(Nc1ccc2ncn(CC(F)(F)F)c2c1)c1ccc(NS(=O)(=O)CCO)cc1N1CCC2(CC1)CC2` [Compound 2], the half-maximal inhibitory concentration (IC50) was less than 200 nM. Next, `Cc1cc(NC(=O)c2ccc(NS(=O)(=O)CCO)cc2N2CC3CCC(C2)O3)nc(N2CCC(F)(F)CC2)n1` [Compound 10]: 200 to 2000 nM. For `Cc1cc(-c2ccc(N3CC4(CCC5(CC5)CC4)c4cc(NS(=O)(=O)CCO)ccc4C3=O)nc2N2CCC(F)(F)CC2)ccn1` [Compound 164] the value was less than 200 nM; for `N#Cc1ccc(N2CC3(CCC(F)(F)CC3)c3cc(NS(=O)(=O)CCO)ccc3C2=O)nc1N1CCC(F)(F)CC1` [Compound 78], less than 200 nM. Next, `CN(C)c1ccc(N2CC3(CCC4(CC4)CC3)c3cc(NS(=O)(=O)CCO)ccc3C2=O)nc1N1CCC(F)(F)CC1` [Compound 152]: less than 200 nM.
